Laboratory results reported in ChEMBL document CHEMBL5465560, “Selectivity Literature for EUbOPEN Chemogenomic Library” (2024).

Key:
[1] = target: T1, MAP kinase-activated protein kinase 5 (Homo sapiens) (UniProt Q8IW41); assay: Selectivity interaction (KinomeScan (DiscoverX)) EUB0001079a MAPKAPK5; settings: at 1 µM
T1 sequence (whole entry): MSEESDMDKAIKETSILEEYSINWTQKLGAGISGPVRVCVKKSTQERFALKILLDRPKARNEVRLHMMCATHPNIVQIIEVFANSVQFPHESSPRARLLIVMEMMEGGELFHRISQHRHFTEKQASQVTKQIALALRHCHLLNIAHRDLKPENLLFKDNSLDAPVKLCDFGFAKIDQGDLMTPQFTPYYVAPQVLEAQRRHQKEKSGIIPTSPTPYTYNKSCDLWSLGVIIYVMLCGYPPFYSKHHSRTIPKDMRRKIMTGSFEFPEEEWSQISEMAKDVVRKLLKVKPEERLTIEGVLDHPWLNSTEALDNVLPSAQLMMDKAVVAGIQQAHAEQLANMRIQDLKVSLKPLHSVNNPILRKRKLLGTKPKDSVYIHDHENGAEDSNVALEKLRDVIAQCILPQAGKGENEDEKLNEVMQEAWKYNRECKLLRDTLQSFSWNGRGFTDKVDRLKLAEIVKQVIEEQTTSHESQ

[2] = target: SRSF protein kinase 3 (Homo sapiens) (UniProt Q9UPE1); assay: Selectivity interaction (Kinase panel (Z-LYTE Assay)) EUB0001632a SRPK3; settings: at 10 µM
Sequence of SRSF protein kinase 3 (Homo sapiens) (Q9UPE1 whole entry): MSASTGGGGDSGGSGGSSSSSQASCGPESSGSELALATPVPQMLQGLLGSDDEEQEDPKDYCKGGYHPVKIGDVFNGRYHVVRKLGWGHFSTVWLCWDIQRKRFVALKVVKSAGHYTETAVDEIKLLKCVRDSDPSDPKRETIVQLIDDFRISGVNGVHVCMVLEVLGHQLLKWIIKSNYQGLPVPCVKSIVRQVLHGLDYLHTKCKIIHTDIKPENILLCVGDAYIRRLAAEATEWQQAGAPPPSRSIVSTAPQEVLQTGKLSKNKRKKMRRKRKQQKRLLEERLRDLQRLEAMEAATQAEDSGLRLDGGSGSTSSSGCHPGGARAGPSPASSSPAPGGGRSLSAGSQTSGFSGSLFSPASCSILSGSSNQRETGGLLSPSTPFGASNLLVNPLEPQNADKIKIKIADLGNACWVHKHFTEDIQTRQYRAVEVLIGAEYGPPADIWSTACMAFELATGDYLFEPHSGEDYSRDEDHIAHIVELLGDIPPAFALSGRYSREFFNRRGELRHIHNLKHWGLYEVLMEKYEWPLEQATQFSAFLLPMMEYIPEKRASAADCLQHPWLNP

[3] = target: T2, Cyclin-G-associated kinase (Homo sapiens) (UniProt O14976); assay: Selectivity interaction (LanthaScreen Eu Kinase Binding Assay) EUB0001632a GAK; settings: at 10 µM
T2 sequence (whole entry): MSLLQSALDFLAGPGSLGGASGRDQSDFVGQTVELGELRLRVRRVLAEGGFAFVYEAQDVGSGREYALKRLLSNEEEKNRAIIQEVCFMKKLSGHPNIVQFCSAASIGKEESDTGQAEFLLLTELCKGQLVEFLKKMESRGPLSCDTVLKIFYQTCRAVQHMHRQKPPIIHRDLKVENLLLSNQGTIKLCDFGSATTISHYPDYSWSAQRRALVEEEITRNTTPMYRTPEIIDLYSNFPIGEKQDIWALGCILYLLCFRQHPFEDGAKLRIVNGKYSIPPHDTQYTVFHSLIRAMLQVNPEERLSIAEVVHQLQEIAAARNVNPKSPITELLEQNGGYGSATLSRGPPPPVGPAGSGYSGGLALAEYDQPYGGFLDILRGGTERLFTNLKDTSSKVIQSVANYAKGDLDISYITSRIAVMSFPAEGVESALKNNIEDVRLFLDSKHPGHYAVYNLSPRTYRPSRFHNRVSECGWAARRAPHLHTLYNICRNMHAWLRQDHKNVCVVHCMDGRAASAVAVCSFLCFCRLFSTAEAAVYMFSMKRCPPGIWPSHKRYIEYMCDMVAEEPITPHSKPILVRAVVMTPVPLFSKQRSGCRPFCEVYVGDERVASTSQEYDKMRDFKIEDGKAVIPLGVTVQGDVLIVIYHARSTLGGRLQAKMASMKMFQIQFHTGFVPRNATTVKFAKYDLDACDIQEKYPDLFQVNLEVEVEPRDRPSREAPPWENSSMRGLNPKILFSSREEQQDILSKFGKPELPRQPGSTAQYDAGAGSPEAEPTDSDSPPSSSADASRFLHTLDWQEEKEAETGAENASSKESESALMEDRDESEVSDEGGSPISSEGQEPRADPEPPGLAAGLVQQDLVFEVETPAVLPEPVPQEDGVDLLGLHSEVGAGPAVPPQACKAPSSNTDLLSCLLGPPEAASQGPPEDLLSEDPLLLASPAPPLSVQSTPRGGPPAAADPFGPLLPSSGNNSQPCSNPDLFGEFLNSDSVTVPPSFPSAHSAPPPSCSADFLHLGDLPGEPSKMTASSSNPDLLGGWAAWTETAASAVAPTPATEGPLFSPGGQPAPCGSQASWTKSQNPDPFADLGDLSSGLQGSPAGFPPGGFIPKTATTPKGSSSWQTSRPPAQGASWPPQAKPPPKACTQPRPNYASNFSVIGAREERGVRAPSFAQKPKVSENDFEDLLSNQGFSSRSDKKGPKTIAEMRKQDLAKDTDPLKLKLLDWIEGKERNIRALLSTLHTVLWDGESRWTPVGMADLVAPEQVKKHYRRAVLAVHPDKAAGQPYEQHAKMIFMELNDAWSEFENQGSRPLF

[4] = target: Tyrosine-protein kinase Fes/Fps (Homo sapiens) (UniProt P07332); assay: Selectivity interaction (SelectScreen profiling (Invitrogen)) EUB0000607a FES; settings: at 2 µM
Sequence of Tyrosine-protein kinase Fes/Fps (Homo sapiens) (P07332 whole entry): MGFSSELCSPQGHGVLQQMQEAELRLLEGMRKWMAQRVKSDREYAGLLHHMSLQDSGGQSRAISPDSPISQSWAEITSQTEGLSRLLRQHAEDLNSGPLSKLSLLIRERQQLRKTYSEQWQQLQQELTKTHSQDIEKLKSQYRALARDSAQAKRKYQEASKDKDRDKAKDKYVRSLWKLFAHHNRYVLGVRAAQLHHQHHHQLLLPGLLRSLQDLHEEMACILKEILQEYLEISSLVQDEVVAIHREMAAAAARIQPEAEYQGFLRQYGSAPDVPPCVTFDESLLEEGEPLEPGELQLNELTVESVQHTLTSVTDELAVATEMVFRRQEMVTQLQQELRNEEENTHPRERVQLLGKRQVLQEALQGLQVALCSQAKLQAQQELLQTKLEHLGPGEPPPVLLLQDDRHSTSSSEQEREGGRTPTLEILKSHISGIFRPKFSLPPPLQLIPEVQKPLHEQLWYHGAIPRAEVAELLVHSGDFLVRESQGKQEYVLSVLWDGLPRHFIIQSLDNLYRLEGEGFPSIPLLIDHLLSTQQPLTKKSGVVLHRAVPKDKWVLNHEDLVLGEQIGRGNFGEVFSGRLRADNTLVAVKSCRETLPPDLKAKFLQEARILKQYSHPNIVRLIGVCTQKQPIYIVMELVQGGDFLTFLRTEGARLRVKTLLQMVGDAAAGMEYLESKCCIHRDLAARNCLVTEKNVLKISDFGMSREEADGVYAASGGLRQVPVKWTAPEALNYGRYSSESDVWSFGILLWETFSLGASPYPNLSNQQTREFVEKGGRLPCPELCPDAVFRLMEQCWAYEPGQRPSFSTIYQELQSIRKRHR

[5] = test system: Tyrosine-protein kinase ABL1 (Homo sapiens), P00519 [F317L]; assay: Selectivity interaction (KinomeScan (DiscoverX)) EUB0000655a ABL1; settings: at 10 µM
Sequence of Tyrosine-protein kinase ABL1 (Homo sapiens), P00519 [F317L] (P00519 whole entry F317L): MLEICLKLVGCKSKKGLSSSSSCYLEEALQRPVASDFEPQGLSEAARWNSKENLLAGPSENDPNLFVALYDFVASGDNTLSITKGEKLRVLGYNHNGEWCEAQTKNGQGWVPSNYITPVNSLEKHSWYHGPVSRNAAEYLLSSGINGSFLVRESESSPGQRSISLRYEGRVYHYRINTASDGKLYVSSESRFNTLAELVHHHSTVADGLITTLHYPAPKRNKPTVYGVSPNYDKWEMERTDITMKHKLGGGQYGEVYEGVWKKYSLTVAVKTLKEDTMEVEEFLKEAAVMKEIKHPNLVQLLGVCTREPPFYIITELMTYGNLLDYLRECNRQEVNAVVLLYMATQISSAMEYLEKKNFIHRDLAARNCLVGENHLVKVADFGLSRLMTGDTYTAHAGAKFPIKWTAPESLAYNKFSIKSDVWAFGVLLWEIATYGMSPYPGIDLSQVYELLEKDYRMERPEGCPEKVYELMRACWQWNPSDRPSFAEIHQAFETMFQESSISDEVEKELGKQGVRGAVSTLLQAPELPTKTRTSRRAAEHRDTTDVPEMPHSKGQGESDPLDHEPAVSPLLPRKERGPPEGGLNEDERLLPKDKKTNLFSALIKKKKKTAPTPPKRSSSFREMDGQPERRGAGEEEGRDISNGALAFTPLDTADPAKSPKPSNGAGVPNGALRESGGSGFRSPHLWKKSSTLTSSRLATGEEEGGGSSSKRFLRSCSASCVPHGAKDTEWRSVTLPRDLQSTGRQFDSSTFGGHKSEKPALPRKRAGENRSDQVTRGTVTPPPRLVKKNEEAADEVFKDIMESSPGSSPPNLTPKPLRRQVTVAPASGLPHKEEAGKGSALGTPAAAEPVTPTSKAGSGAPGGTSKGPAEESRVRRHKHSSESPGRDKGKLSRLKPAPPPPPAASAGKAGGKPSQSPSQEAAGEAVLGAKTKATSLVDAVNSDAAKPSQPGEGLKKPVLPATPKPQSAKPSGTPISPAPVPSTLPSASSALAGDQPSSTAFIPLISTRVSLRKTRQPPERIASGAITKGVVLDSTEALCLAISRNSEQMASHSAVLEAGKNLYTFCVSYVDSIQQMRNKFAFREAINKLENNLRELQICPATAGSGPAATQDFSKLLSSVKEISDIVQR

[6] = target: T3, Serine/threonine-protein kinase STK11 (Homo sapiens) (UniProt Q15831); assay: Selectivity interaction (Ambit KINOMEscan and KiNATiv profiling in Jurkat cells) EUB0000090b STK11; assay type: cell-based; settings: at 1 µM
T3 sequence (whole entry): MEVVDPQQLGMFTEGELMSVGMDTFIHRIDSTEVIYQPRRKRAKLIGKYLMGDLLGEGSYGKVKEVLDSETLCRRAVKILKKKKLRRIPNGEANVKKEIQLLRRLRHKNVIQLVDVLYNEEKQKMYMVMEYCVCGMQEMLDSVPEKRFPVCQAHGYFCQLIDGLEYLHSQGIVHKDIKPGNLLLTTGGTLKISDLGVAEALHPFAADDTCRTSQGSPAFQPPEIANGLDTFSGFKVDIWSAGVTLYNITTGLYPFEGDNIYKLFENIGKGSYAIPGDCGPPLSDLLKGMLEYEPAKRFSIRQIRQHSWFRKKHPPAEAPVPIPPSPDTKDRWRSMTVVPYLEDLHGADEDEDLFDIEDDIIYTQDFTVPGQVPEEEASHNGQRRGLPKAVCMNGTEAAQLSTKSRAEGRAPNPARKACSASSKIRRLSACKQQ

For `Nc1cnc(N2CCc3cc(S(=O)(=O)Nc4c(F)cc(Cl)cc4F)cc(N4CCCC4=O)c32)nc1` [TP-020n], the % of control [1] was 92%.

Work on `Cn1cc(-n2cnc3c(NCc4nc5cc(Cl)c(Cl)cc5[nH]4)nc(N4CCOCC4)nc32)cn1` yielded a % of control [2] of -1.05% and a % of inhibition [3] of -16.7%.

Compound `CNC(=O)Nc1ccc(-c2nc(N3CC4CCC(C3)O4)c3cnn(C4CCC5(CC4)OCCO5)c3n2)cc1` has a % of inhibition [4] of -1%.

With `CN(C)CCOc1ccc(-c2nc(-c3ccncc3)c(-c3ccc4c(c3)CC/C4=N\O)[nH]2)cc1` the % of control [5] was 59%.

`CN(C)C/C=C/C(=O)Nc1ccc(C(=O)N2CCCC(Nc3ncc(Cl)c(-c4c[nH]c5ccccc45)n3)C2)cc1` (stereo unspecified) was tested, and the % of control [6] was 94%.
